{"source": "patent US9732087B2", "about": "“Diamino-pyridine, pyrimidine, and pyridazine modulators of the histamine H4 receptor” (JANSSEN PHARMACEUTICA NV, priority 2008, dated 2017)", "data": [{"target": "human H4 receptor (Homo sapiens (Human), UniProt Q9H3N8)", "sequence (Q9H3N8 whole entry)": "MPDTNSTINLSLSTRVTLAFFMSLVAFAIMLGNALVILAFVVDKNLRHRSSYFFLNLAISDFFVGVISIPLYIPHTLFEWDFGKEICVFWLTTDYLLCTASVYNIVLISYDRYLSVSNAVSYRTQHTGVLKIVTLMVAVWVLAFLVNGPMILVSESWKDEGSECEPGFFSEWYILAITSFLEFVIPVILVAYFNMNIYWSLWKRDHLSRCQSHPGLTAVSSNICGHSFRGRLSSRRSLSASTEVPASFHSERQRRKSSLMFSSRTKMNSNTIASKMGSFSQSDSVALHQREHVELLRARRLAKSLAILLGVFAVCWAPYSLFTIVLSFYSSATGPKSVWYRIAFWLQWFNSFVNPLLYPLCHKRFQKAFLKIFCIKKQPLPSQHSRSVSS", "assay": "Binding assay on recombinant human histamine H4 receptor ([3H]histamine competition, SK-N-MC cell membranes)", "conditions": "membranes harvested with 96 well Brandel system; [3H]histamine 10 nM; average of results; read-out: Brandel Ki", "description": "(§1) Binding Assay on Recombinant Human Histamine H4Receptor\n(§2) Cell pellets from SK-N-MC cells stably or transiently transfected with human H4 receptor (NCBI accession No. AF312230) were used for the binding assays. Cell pellets were homogenized in 50 mM Tris/5 mM EDTA buffer and supernatants from an 800 g spin were collected and recentrifuged at 30,000 g for 30 min. Pellets were rehomogenized in 50 mM Tris/5 mM EDTA buffer. […] Membranes were harvested by rapid filtration using the 96 well Brandel system (Table 1, Brandel) or a cell harvester (Table 1, Cell Harvester) using a Whatman GF/C filter or filter plates treated with 0.5% polyethylenimine (PEI), and washed 4 times with ice-cold 50 mM Tris/5 mM EDTA buffer. Filters were then dried, mixed with scintillant and radioactive counts were determined. […] Where activity is shown as greater than (>) a particular value, the value is the highest concentration tested.", "units": {"Ki": "nM"}, "values": [{"smiles": "CC(C)CNc1nccc(N2CCNCC2)n1", "note": "[Example 65, Isobutyl-(4-piperazin-1-yl-pyrimidin-2-yl)-amine]", "Ki": 46.3}, {"smiles": "CN[C@@H]1CCN(c2cnnc(NCC3CC3)c2)C1", "note": "[Example 99, N-(Cyclopropylmethyl)-5-[(3R)-3-(methylamino)pyrrolidin-1-yl]pyridazin-3-amine]", "Ki": 23.9}]}, {"target": "human H4 receptor (Homo sapiens (Human), UniProt Q9H3N8)", "assay": "Binding assay on recombinant human histamine H4 receptor ([3H]histamine competition, SK-N-MC cell membranes)", "conditions": "membranes harvested with cell harvester; [3H]histamine 10 nM; average of results; read-out: Cell Harvester Ki", "description": "as §1, §2", "units": {"Ki": "nM"}, "values": [{"smiles": "C[C@@H]1[C@@H](Nc2nccc(N3CCNCC3)n2)C[C@H]2C[C@@H]1C2(C)C", "note": "[Example 134, 4-Piperazin-1-yl-N-[(1S,2S,3S,5R)-2,6,6-trimethylbicyclo[3.1.1]hept-3-yl]pyrimidin-2-amine]", "Ki": 697}, {"smiles": "CNC1CN(c2cnnc(NC3CCCCC3)c2)C1", "note": "[Example 325, N-Cyclohexyl-5-[3-(methylamino)azetidin-1-yl]pyridazin-3-amine]", "Ki": 798}, {"smiles": "C[C@@H](Nc1nccc(N2CC[C@@H](N)C2)n1)c1ccccc1", "note": "[Example 175, 4-[(3R)-3-Aminopyrrolidin-1-yl]-N-[(1R)-1-phenylethyl]pyrimidin-2-amine]", "Ki": 816}, {"smiles": "Cc1ccc(CNc2nccc(N3CCN(C)CC3)n2)cc1", "note": "[Example 163]", "Ki": 278}, {"smiles": "CNC1CN(c2ccnc(N[C@H](C)C3CCCCC3)n2)C1", "note": "[Example 113, N-[(1R)-1-Cyclohexylethyl]-4-[3-(methylamino)azetidin-1-yl]pyrimidin-2-amine]", "Ki": 139}, {"smiles": "CN[C@H]1CCN(c2ccnc(NCCCO)n2)C1", "note": "[Example 152, 3-({4-[(3S)-3-(Methylamino)pyrrolidin-1-yl]pyrimidin-2-yl}amino)propan-1-ol]", "Ki": 2300}, {"smiles": "CC(C)CNc1nccc(N2CCNCC2)n1", "note": "[Example 65, Isobutyl-(4-piperazin-1-yl-pyrimidin-2-yl)-amine]", "Ki": 68.6}, {"smiles": "CC1C(Nc2cc(N3CCNCC3)ccn2)C[C@H]2C[C@@H]1C2(C)C", "note": "(stereo partly drawn) [Example 269, 4-Piperazin-1-yl-N-[(1S,5R)-2,6,6-trimethylbicyclo[3.1.1]hept-3-yl]pyridine-2-amine]", "Ki": 2100}, {"smiles": "N[C@H]1CCN(c2ccnc(NC3CCCC3)n2)C1", "note": "[Example 160, 4-[(3S)-3-Aminopyrrolidin-1-yl]-N-cyclopentylpyrimidin-2-amine]", "Ki": 86.7}, {"smiles": "CN1CCN(c2ccnc(NC3C4C[C@H]5C[C@@H](C4)C[C@@H]3C5)c2)CC1", "note": "(stereo partly drawn) [Example 207, Adamantan-2-yl-[4-(4-methyl-piperazin-1-yl)-pyridin-2-yl]-amine]", "Ki": 191}, {"smiles": "CNC1CN(c2ccnc(NCc3ccccc3)c2)C1", "note": "[Example 285, N-Benzyl-4-[3-(methylamino)azetidin-1-yl]pyridin-2-amine]", "Ki": 141}, {"smiles": "CN[C@@H]1CCN(c2cnnc(NCc3ccc(F)cc3)c2)C1", "note": "[Example 398, N-(4-Fluorobenzyl)-5-[(3R)-3-(methylamino)pyrrolidin-1-yl]pyridazin-3-amine]", "Ki": 347}, {"smiles": "CC(C)(CO)CNc1nccc(N2CC[C@@H](N)C2)n1", "note": "[Example 153, 3-({4-[(3R)-3-Aminopyrrolidin-1-yl]pyrimidin-2-yl}amino)-2,2-dimethylpropan-1-ol]", "Ki": 43.6}, {"smiles": "CN[C@@H]1CCN(c2cnnc(NCC3CC4CCC3C4)c2)C1", "note": "(stereo partly drawn) [Example 375, N-(Bicyclo[2.2.1]hept-2-ylmethyl)-5-[(3R)-3-(methylamino)pyrrolidin-1-yl]pyridazin-3-amine]", "Ki": 66.8}, {"smiles": "CNC1CN(c2ccnc(NC3CC3)c2)C1", "note": "[Example 281, N-Cyclopropyl-4-[3-(methylamino)azetidin-1-yl]pyridin-2-amine]", "Ki": 21.3}, {"smiles": "C[C@@H](Nc1cc(N2C[C@H]3CCN[C@H]3C2)ccn1)C1CCCCC1", "note": "[Example 271, N-[(1R)-1-Cyclohexylethyl]-4-[(3aR,6aR)-hexahydropyrrolo[3,4-b]pyrrol-5(1H)-yl]pyridin-2-amine]", "Ki": 189}, {"smiles": "CN[C@@H]1CCN(c2ccnc(NCc3ccc(OC)cc3)n2)C1", "note": "[Example 176, N-(4-Methoxybenzyl)-4-[(3R)-30(methylamino)pyrrolidin-1-yl]pyrimidin-2-amine]", "Ki": 458}, {"smiles": "CCCCNc1cc(N2CC[C@@H](N)C2)cnn1", "note": "[Example 367, 5-[(3R)-3-Aminopyrrolidin-1-yl]-N-butylpyridazin-3-amine]", "Ki": 867}, {"smiles": "C[C@@H]1[C@@H](Nc2nccc(N3CC[C@@H](N)C3)n2)C[C@H]2C[C@@H]1C2(C)C", "note": "[Example 116, 4-[(3R)-3-Aminopyrrolidin-1-yl]-N-[(1S,2S,3S,5R)-2,6,6-trimethylbicyclo[3.1.1]hept-3-yl]pyrimidin-2-amine]", "Ki": 7.53}, {"smiles": "COCCNc1cc(N2CC[C@@H](N)C2)ccn1", "note": "[Example 289, 4-[(3R)-3-Aminopyrrolidin-1-yl]-N-(2-methoxyethyl)pyridin-2-amine]", "Ki": 410}, {"smiles": "c1nnc(NC2CC2)cc1N1C[C@H]2CCN[C@H]2C1", "note": "[Example 309, N-Cyclopropyl-5-[(3aR,6aR)-hexahydropyrrolo[3,4-b]pyrrol-5(1H)-yl]pyridazin-3-amine]", "Ki": 1600}, {"smiles": "CC1(C)[C@@H]2CC[C@@]1(C)[C@@H](Nc1nccc(N3CC[C@@H](N)C3)n1)C2", "note": "[Example 127, 4-[(3R)-3-Aminopyrrolidin-1-yl]-N-[(1R,2S,4R)-1,7,7-trimethylbicyclo[2.2.1]hept-2-yl]pyrimidin-2-amine]", "Ki": 1.66}, {"smiles": "CN[C@@H]1CCN(c2cnnc(NCC3CC3)c2)C1", "note": "[Example 99, N-(Cyclopropylmethyl)-5-[(3R)-3-(methylamino)pyrrolidin-1-yl]pyridazin-3-amine]", "Ki": 23.9}, {"smiles": "CN[C@H]1CCN(c2cnnc(NC3CC3)c2)C1", "note": "[Example 395, N-Cyclopropyl-5-[(3S)-3-(methylamino)pyrrolidin-1-yl]pyridazin-3-amine]", "Ki": 1900}, {"smiles": "CC(C)(C)Nc1cc(N2C[C@H]3CCN[C@H]3C2)ccn1", "note": "[Example 288, N-tert-Butyl-4-[(3aR,6aR)-hexahydropyrrolo[3,4-b]pyrrol-5(1H)-yl]pyridin-2-amine]", "Ki": 39.5}, {"smiles": "CNC1CN(c2cnnc(NC3C[C@H]4C[C@@H](C3C)C4(C)C)c2)C1", "note": "(stereo partly drawn) [Example 301, 5-[3-(Methylamino)azetidin-1-yl]-N-[(1S,5R)-2,6,6-trimethylbicyclo[3.1.1]hept-3-yl]pyridazin-3-amine]", "Ki": 202}, {"smiles": "N[C@H]1CCN(c2ccnc(NC3CCCC3)c2)C1", "note": "[Example 268, 4-[(3S)-3-Aminopyrrolidin-1-yl]-N-cyclopentylpyridin-2-amine]", "Ki": 247}, {"smiles": "c1nnc(NC2CC2)cc1N1CCNCC1", "note": "[Example 315, N-Cyclopropyl-5-piperazin-1-ylpyridazin-3-amine]", "Ki": 1920}, {"smiles": "N[C@@H]1CCN(c2ccnc(NCCCO)n2)C1", "note": "[Example 154, 3-({4-[(3R)-3-Aminopyrrolidin-1-yl]pyrimidin-2-yl}amino)propan-1-ol]", "Ki": 204}, {"smiles": "c1cc(N2CCNCC2)cc(NCC2CCCO2)n1", "note": "(stereo not drawn) [Example 39, 4-Piperazin-1-yl-N-(tetrahydrofuran-2-ylmethyl)pyridin-2-amine]", "Ki": 554}, {"smiles": "CN[C@H]1CCN(c2cnnc(N[C@H](C)C3CCCCC3)c2)C1", "note": "[Example 373, N-[(1R)-1-Cyclohexylethyl]-5-[(3S)-3-(methylamino)pyrrolidin-1-yl]pyridazin-3-amine]", "Ki": 143}, {"smiles": "N[C@@H]1CCN(c2ccnc(NCC3CCCO3)n2)C1", "note": "(stereo partly drawn) [Example 51, 4-[(R)-3-Aminopyrrolidin-1-yl]-N-(tetrahydrofuran-2-ylmethyl)pyrimidin-2-amine]", "Ki": 123}, {"smiles": "c1cc(N2CCNCC2)nc(NC2CC3CCC2C3)n1", "note": "(stereo not drawn) [Example 133, N-Bicyclo[2.2.1]hept-2-yl-4-piperazin-1-ylpyrimidin-2-amine]", "Ki": 129}, {"smiles": "CN1CCN(c2ccnc(NCCCO)n2)CC1", "note": "[Example 161, 3-{[4-(4-Methylpiperazin-1-yl)pyrimidin-2-yl]amino}propan-1-ol]", "Ki": 1300}]}]}
